Values quoted from earlier work, collected in patent US8216611B2, “Combined-step process for pharmaceutical compositions” (Mylan Pharmaceuticals ULC, priority 2005, dated 2012).

Key:
healthy volunteers = tested on: healthy volunteers; design: tolerability at single dose: dose or concentration left out as unconfirmed
epileptic patients = settings: doses up to 4000 mg/day, preliminary data

CC[C@@H](C(N)=O)N1CCCC1=O [levetiracetam, (−)-(S)-α-ethyl-2-oxo-1-pyrrolidine acetamide]
tolerability at repeated doses (healthy volunteers; repeated doses (1500 mg/day for 14 days)): well tolerated
tolerability at single dose (healthy volunteers; single dose): well tolerated
solubility in water: 104.0 g/100 ml
tolerability in epileptic patients (epileptic patients): good tolerability
